Legend:
glucocorticoid receptor = target: T1, glucocorticoid receptor (Homo sapiens, UniProt P04150); assay: Glucocorticoid receptor binding assay (fluorescence polarisation); settings: competition with Alexa 555 fluorescently-labelled dexamethasone derivative, full length glucocorticoid receptor; read-out: glucocorticoid binding pIC50 (converted)
T1 construct: a partially purified full length glucocorticoid receptor
T1 sequence (P04150 1-777): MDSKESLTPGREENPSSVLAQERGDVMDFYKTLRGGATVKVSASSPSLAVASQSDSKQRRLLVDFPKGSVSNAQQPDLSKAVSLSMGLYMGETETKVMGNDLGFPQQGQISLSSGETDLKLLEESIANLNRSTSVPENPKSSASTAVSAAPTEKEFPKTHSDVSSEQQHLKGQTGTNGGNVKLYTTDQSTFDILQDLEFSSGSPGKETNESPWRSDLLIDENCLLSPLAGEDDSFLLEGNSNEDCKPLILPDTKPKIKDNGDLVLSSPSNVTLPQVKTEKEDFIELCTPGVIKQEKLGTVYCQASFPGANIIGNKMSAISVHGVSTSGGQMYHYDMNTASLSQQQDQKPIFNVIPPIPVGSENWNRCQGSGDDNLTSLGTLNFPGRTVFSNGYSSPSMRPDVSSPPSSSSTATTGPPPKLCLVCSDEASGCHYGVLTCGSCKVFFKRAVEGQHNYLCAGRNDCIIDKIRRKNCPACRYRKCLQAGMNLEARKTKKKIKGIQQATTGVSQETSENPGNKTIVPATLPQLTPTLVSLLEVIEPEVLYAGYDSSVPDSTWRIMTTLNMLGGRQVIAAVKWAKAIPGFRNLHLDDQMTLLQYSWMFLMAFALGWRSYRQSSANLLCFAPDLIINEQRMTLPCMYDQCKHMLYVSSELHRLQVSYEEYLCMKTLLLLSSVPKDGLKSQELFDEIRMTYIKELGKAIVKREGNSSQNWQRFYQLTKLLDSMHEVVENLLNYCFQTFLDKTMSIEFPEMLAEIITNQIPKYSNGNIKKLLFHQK
Outline: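 Compounds in DMSO incubated with fluorescent dexamethasone and partially purified full-length GR plus stabilising buffer components, 2 hrs at room temperature in the dark. Displacement read as decrease in fluorescence polarisation; pIC50 estimated from dose-response curves.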

MMTV promoter = assay: MMTV agonist assay in A549 MMTV cells; type: cell-based; settings: Homo sapiens, A549, 6 h, >85% = full agonist, >20% and <85% = partial or efficacy selective agonist, read-out: average maximum asymptote in the MMTV agonist assay
From the text: Human lung carcinoma A549 cell line (ECACC No. 86012804) has been stably transfected in house with a plasmid containing a renilla luciferase reporter with an MMTV promoter. Stimulation of the cell line with GR agonists results in intracellular signal transduction and ultimately translocation of GR into the nucleus. This activates the inserted DNA sequence resulting in transcription of the integrated luciferase gene, which is quantified using a light emission. The stably transfected cell line was grown as a monolayer in DMEM supplemented with FCS-HI (10%), Non-essential amino acids (1%), L-Glutamine (2 mM), Pen/Strep (1%) and Geneticin (50 mg/ml).
A 90% confluent T175 flask of A549 MMTV cells was harvested by centrifugation for 5 min at 200 g, resuspended in assay buffer (DMEM supplemented with 10% FCS 2×HI, 2 mM Glutamax, Non essential amino acids and 25 mM HEPES) and diluted to 0.1×10^6/ml. 70 μl of cell solution was dispensed to each well of white Nunc 384-well plates, containing compound at the required concentration. Plates were incubated for 6 h at 37° C., 95% humidity, 5% CO2. Plates were equilibrated to room temperature for 1 h prior to the addition of 10 μl of Renilla substrate to each well of assay plates. The plates were covered to protect the reagents from light, and then incubated at room temperature for approximately 15 mins before reading them on a Viewlux. Dose response curves were constructed from which pEC50 and maximum asymptote values were estimated.

progesterone receptor = target: T2, progesterone receptor (Homo sapiens, UniProt P06401); assay: Assay for progesterone receptor activity (CV-1 cells, PRb-BacMam/MMTV-BacMam); type: cell-based; settings: CV-1 cells transduced with PRb-BacMam and MMTV-BacMam; read-out: pEC50 progesterone receptor activity (converted)
T2 construct: expressed in transfected cells; host or cells: CV-1 cells transduced with PRb-BacMam and MMTV-BacMam
T2 sequence (P06401 1-933): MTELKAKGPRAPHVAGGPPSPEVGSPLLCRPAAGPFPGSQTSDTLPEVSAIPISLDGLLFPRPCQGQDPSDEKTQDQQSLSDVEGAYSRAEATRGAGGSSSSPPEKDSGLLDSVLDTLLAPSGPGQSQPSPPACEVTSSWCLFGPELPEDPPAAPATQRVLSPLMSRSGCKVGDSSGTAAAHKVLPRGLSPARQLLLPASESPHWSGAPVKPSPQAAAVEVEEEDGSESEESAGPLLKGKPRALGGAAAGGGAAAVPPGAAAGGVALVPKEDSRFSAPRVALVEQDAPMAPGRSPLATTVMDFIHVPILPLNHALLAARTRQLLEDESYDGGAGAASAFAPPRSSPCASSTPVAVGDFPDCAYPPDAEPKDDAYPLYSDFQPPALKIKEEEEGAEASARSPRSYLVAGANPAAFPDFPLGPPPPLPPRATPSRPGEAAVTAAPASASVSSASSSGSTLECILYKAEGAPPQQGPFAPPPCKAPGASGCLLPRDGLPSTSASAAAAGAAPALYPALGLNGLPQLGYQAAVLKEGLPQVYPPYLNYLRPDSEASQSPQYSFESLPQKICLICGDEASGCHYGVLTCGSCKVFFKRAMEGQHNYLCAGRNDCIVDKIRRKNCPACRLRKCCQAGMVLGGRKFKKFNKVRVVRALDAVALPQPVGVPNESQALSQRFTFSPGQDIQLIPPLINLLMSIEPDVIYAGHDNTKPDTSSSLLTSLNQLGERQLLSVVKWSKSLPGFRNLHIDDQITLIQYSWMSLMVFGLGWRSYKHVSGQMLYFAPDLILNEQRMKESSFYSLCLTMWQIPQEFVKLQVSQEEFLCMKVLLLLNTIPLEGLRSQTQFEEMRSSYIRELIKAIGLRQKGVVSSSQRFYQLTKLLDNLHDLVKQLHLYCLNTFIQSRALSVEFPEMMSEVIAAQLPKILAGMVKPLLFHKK
Outline: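 CV-1 cells co-transduced with PRb-BacMam and MMTV-BacMam (10% each), seeded onto compounds in DMEM with 10% serum. After 24 h, luminescence was read with Steadylite. pEC50 values were estimated from dose-response curves.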

| SMILES | IC50 (glucocorticoid receptor) [µM] | Emax (MMTV promoter) [%] | EC50 (progesterone receptor) [µM] |
| --- | --- | --- | --- |
| Nc1c(C(=O)NCC(O)(CNC(=O)c2c(C(F)(F)F)cccc2C(F)(F)F)C(F)(F)F)cnn1-c1ccc(F)cc1 (racemic) [Example 15 (racemic), 5-amino-N-{2-[({[2,6-bis(trifluoromethyl)phenyl]carbonyl}amino)methyl]-3,3,3-trifluoro-2-hydroxypropyl}-1-(4-fluorophenyl)-1H-pyrazole-4-carboxamide] | ≤ 0.316 | 20 to 85 | > 1 |
| CN(CC(O)(CNC(=O)c1cnn(-c2ccc(F)cc2)c1N)C(F)(F)F)C(=O)c1c(Cl)cccc1Br (racemic) [Example 16 (racemic), 5-amino-N-(2-{[[(2-bromo-6-chlorophenyl)carbonyl](methyl)amino]methyl}-3,3,3-trifluoro-2-hydroxypropyl)-1-(4-fluorophenyl)-1H-pyrazole-4-carboxamide] | ≤ 0.316 | > 85 | > 1 |
| Nc1c(C(=O)NCC(O)(CN(CCF)C(=O)c2c(F)cccc2F)C(F)(F)F)cnn1-c1ccc(F)cc1 (racemic) [Example 17 (racemic), 5-amino-N-(2-{[[(2,6-difluorophenyl)carbonyl](2-fluoroethyl)amino]methyl}-3,3,3-trifluoro-2-hydroxypropyl)-1-(4-fluorophenyl)-1H-pyrazole-4-carboxamide] | ≤ 0.316 | > 85 | > 1 |
| Nc1c(C(=O)NCC(O)(CN(CCF)C(=O)c2c(F)cccc2C(F)(F)F)C(F)(F)F)cnn1-c1ccc(F)cc1 (racemic) [Example 18 (racemic), 5-amino-1-(4-fluorophenyl)-N-{3,3,3-trifluoro-2-[((2-fluoroethyl){[2-fluoro-6-(trifluoromethyl)phenyl]carbonyl}amino)methyl]-2-hydroxypropyl}-1H-pyrazole-4-carboxamide] | ≤ 0.316 | > 85 | > 1 |
| Nc1c(C(=O)NCC(O)(CNC(=O)c2c(F)cccc2C(F)(F)F)C(F)(F)F)cnn1-c1ccc(F)cc1 (racemic) [Example 19 (racemic), 5-amino-1-(4-fluorophenyl)-N-{3,3,3-trifluoro-2-[({[2-fluoro-6-(trifluoromethyl)phenyl]carbonyl}amino)methyl]-2-hydroxypropyl}-1H-pyrazole-4-carboxamide] | ≤ 0.316 | 20 to 85 | > 1 |
| CN(CC(O)(CNC(=O)c1cnn(-c2ccc(F)cc2)c1N)C(F)(F)F)C(=O)c1c(F)cccc1C(F)(F)F (racemic) [Example 21 (racemic), 5-amino-1-(4-fluorophenyl)-N-(3,3,3-trifluoro-2-{[{[2-fluoro-6-(trifluoromethyl)phenyl]carbonyl}(methyl)amino]methyl}-2-hydroxypropyl)-1H-pyrazole-4-carboxamide] | ≤ 0.316 | > 85 | > 1 |
| CN(CC(O)(CNC(=O)c1cnn(-c2ccc(F)cc2)c1N)C(F)(F)F)C(=O)c1c(C(F)(F)F)cccc1C(F)(F)F (racemic) [Example 22 (racemic), 5-amino-N-(2-{[{[2,6-bis(trifluoromethyl)phenyl]carbonyl}(methyl)amino]methyl}-3,3,3-trifluoro-2-hydroxypropyl)-1-(4-fluorophenyl)-1H-pyrazole-4-carboxamide] | ≤ 0.316 | > 85 | > 1 |
| CCN(CC(O)(CNC(=O)c1cnn(-c2ccc(F)cc2)c1N)C(F)(F)F)C(=O)c1c(F)cccc1C(F)(F)F (racemic) [Example 23 (racemic), 5-amino-N-{2-[(ethyl{[2-fluoro-6-(trifluoromethyl)phenyl]carbonyl}amino)methyl]-3,3,3-trifluoro-2-hydroxypropyl}-1-(4-fluorophenyl)-1H-pyrazole-4-carboxamide] | ≤ 0.316 | > 85 | > 1 |
